The text below walks through data of ChEMBL document CHEMBL5465560, “Selectivity Literature for EUbOPEN Chemogenomic Library” (2024).

The target in test [1] is Ribosomal protein S6 kinase alpha-3 (Homo sapiens, UniProt P51812). The test is described as follows: Selectivity interaction (KinomeScan (DiscoverX)) EUB0001619a RPS6KA3. The note with it: at 1 µM.
In test [2] the target is T1, Mitogen-activated protein kinase kinase kinase kinase 2 (Homo sapiens) (UniProt Q12851).
T1 sequence (whole entry): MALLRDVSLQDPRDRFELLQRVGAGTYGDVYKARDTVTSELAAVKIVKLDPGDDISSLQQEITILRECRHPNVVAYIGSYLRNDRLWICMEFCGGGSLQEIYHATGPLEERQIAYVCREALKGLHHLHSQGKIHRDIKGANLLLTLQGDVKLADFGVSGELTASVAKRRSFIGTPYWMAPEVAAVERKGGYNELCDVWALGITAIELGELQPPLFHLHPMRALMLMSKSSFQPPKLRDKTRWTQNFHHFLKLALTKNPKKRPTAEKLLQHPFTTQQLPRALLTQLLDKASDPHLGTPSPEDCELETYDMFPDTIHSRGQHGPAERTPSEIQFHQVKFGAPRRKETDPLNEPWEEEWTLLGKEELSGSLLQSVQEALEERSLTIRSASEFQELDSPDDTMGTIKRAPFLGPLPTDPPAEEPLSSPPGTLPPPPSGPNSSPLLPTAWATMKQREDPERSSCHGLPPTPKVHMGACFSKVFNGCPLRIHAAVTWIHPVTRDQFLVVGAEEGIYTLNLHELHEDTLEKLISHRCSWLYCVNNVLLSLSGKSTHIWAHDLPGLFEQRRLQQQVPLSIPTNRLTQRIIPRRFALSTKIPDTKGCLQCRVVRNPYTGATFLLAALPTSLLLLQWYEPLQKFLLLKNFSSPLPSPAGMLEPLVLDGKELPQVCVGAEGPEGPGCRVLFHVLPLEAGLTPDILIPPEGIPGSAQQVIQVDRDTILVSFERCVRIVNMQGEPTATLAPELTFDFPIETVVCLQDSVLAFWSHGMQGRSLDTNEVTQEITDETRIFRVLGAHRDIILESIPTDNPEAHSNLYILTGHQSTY
The experiment in a line: Selectivity interaction (ActivX KiNativ screen (ex vivo kinase selectivity in human PBMCs)) EUB0001619a MAP4K2. The format is cell-based. To be noted: PBMC, at 1 µM.

Test [3] concerns the target MAP kinase-interacting serine/threonine-protein kinase 2 (Homo sapiens, UniProt Q9HBH9). The test is described as follows: Selectivity interaction (KinomeScan (DiscoverX)) EUB0000695a MKNK2. To be noted: at 100 nM.
In test [4] the target is Serine/threonine-protein kinase PLK3 (Homo sapiens, UniProt Q9H4B4). The experiment in a line: Selectivity interaction (KinomeScan (DiscoverX)) EUB0000695a PLK3. The note with it: at 100 nM.
Test [5] deals with T2, Phosphatidylinositol 4,5-bisphosphate 3-kinase catalytic subunit delta isoform (Homo sapiens) (UniProt O00329).
T2 sequence (whole entry): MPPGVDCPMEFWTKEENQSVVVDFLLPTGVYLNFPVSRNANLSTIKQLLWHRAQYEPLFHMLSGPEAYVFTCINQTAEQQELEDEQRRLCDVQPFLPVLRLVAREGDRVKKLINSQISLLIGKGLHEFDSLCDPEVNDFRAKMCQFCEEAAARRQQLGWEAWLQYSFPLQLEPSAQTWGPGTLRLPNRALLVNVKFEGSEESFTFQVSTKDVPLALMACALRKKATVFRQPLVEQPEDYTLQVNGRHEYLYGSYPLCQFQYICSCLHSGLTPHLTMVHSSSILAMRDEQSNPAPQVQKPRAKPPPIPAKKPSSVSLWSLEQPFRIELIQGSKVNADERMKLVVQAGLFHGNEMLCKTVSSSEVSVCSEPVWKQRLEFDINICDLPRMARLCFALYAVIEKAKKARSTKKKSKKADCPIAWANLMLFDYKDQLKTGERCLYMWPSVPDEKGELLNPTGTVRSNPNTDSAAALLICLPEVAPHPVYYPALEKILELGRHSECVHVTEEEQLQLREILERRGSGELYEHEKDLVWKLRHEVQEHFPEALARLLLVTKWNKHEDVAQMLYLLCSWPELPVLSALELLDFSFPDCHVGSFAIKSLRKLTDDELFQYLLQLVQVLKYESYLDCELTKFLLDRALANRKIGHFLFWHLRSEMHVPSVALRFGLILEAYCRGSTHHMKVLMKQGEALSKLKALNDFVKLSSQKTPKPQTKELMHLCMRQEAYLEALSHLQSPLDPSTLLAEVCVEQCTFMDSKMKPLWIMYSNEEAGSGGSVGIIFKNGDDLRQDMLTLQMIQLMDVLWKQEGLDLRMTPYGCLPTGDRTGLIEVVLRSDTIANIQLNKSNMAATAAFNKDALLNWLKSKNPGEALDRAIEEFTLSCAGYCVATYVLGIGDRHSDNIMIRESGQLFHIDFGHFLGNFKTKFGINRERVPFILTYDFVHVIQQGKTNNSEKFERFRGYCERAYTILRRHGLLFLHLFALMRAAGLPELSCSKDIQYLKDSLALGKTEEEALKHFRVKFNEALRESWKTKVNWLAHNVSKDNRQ
The experiment in a line: Selectivity interaction (Kinase panel (Invitrogen)) EUB0000639a PIK3CD. The note with it: at 200 nM.

Test [6] has as its target T3, Serine/threonine-protein kinase haspin (Homo sapiens) (UniProt Q8TF76).
T3 sequence (whole entry): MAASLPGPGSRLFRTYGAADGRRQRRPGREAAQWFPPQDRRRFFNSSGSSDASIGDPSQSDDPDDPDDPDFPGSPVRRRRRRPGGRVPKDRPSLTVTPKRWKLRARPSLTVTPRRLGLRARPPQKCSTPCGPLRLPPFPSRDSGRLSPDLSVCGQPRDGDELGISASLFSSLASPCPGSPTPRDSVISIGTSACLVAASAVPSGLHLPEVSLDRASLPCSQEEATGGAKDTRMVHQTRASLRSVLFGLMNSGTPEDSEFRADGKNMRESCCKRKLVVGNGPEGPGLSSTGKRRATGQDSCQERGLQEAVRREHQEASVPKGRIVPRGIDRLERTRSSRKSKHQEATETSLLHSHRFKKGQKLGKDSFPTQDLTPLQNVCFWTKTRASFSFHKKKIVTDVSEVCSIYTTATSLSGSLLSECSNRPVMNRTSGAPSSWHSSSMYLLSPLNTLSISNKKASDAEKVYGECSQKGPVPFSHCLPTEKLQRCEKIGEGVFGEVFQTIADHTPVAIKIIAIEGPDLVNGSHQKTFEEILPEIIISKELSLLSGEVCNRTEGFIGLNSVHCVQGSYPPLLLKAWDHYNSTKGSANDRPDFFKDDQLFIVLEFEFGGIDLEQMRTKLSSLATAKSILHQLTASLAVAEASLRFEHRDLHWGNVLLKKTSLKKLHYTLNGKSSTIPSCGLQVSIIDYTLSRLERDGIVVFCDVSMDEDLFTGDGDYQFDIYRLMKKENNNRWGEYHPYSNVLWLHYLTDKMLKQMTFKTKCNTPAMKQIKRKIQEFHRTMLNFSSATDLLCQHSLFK
The test is described as follows: Selectivity interaction (KinomeScan (DiscoverX)) EUB0001049a GSG2. To be noted: at 1 µM.

For test [7], the target named is Atypical kinase COQ8A, mitochondrial (Homo sapiens, UniProt Q8NI60). The experiment in a line: Selectivity interaction (KinomeScan (DiscoverX)) EUB0000655a ADCK3. To be noted: at 10 µM.
Chain of Atypical kinase COQ8A, mitochondrial (Q8NI60 163-647 limits assumed): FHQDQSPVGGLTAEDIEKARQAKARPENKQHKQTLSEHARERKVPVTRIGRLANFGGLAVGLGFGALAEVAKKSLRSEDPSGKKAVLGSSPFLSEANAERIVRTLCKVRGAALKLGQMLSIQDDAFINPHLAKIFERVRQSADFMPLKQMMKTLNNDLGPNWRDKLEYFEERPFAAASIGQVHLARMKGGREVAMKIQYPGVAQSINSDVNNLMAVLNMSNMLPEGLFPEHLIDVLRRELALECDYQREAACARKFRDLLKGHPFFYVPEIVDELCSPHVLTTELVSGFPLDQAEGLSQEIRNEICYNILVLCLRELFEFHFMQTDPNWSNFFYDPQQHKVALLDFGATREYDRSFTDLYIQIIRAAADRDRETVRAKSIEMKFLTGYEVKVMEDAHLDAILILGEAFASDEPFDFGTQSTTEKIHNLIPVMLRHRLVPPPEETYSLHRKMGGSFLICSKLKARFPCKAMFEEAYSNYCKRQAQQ

Chain of MAP kinase-interacting serine/threonine-protein kinase 2 (Q9HBH9 whole entry, looked up): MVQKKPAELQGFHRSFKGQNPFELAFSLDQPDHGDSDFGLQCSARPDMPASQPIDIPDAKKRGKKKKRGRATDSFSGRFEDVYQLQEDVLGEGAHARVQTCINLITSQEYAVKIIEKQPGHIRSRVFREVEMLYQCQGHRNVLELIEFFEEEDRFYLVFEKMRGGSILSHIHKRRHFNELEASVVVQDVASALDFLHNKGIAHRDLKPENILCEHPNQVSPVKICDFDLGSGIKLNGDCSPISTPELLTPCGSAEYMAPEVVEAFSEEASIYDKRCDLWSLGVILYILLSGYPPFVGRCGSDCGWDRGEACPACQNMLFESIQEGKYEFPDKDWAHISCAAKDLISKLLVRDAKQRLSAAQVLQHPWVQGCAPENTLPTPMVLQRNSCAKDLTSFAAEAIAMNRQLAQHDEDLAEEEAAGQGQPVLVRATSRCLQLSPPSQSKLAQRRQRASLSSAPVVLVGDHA
Chain of Ribosomal protein S6 kinase alpha-3 (P51812 whole entry): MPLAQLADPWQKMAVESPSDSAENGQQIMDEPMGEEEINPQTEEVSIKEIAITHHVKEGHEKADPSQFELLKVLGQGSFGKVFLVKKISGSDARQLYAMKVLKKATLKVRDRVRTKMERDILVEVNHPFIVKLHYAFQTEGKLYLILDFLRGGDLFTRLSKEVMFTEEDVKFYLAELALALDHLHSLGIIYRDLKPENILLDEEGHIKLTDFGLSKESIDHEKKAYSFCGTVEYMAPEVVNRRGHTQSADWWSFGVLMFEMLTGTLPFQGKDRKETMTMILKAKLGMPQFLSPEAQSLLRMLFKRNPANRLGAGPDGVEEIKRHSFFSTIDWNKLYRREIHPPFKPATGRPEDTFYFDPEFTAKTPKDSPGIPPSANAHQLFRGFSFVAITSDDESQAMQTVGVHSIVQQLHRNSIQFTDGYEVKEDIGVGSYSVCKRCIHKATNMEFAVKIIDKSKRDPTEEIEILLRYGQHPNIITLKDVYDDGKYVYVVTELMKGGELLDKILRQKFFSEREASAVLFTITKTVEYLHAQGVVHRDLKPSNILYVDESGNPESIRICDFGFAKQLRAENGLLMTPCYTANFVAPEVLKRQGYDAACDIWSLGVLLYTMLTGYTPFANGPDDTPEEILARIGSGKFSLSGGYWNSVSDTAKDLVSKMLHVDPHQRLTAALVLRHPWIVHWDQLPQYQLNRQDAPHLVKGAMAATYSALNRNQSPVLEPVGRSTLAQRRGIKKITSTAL
Chain of Serine/threonine-protein kinase PLK3 (Q9H4B4 whole entry, looked up, canonical isoform): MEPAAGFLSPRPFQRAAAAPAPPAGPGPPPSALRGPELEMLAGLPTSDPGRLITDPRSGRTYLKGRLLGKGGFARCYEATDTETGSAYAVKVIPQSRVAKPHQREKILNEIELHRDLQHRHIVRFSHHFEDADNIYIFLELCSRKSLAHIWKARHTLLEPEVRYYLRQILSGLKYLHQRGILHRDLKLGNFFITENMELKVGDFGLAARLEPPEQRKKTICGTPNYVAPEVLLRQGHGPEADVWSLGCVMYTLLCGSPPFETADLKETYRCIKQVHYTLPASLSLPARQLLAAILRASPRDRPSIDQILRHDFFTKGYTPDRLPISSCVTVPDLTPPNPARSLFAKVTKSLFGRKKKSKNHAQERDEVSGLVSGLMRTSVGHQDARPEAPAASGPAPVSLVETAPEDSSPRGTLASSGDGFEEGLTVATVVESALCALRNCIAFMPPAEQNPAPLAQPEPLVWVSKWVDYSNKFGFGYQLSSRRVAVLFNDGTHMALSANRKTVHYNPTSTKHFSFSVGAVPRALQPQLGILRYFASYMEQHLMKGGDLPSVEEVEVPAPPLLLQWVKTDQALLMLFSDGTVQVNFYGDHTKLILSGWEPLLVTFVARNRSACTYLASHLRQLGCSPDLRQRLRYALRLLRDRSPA

`N#Cc1cccc(-c2c[nH]c3ncnc(N4CCOCC4)c23)c1` showed a % of control in test [1] of 38%. This molecule gave a % of inhibition in test [2] of 24%.
With `Cc1cc(F)c(C(=O)Nc2cccc(-c3nncn3C(C)C)n2)cc1-n1cnc(C2CC2)c1`, the % of control in test [3] turned out to be 75%; in test [4], 100%.
For `CC[C@@H]1[C@H](F)C(=O)N[C@@H]1COc1nccc2cc(C(N)=O)c(OC)cc12` [ZIMLOVISERTIB], the % of inhibition in test [5] was determined as 1.5%.
The molecule `COc1cc(Nc2nc(C)cc(-c3cnn4nc(OC)ccc34)n2)cc(C(F)(F)F)c1` yielded a % of control in test [6] of 100%.
As to `CN(C)CCOc1ccc(-c2nc(-c3ccncc3)c(-c3ccc4c(c3)CC/C4=N\O)[nH]2)cc1`, the % of control in test [7] turned out to be 7%.
